Structures can show the parent of a compound that is named as a salt. Where two headings read alike, the source gives them in different places.
Tests used:
[1] = target: dopamine receptors derived from rat hypothalamus; assay: Displacement of D probe from natural receptor; assay type: binding, male-Wistar rat; settings: 10 mg protein, 0.25 μmole D in 1 mL (250 μM), 37 °C, mean ± SD, n = 4; read-out: Ki, D ligand, Rat hypothalamus
Experimental: (§1) The equilibrium binding constants of the ergots on dopamine and serotonin receptors derived from rat hypothalamus was examined in a displacement assay using the added D and S as the molecular probes. The male-Wistar rat hypothalami receptors were isolated using a previously described procedure. The receptor pellets were washed with 50 mM Tris HCl until the endogenous D and S are no longer found in the rinse as examined by the fluorescence method described in the binding study. The pellets were then re-suspended in 50 mM Tris HCl with 0.5 mM Na2EDTA, 0.1% Na ascorbate before use. The protein content of the receptor pellets was verified by using the procedure of Bradford. Saturation experiments for the rat hypothalamus receptor were carried out by varying the concentration of D or S ligand in a 50 mM Tris HCl with 0.5 mM Na2EDTA and 0.1% Na ascorbate solution at 37 °C. The D and S binding at various concentrations was determined, using the fluorescence spectroscopic method for assay of the unbound probe as in the binding study.
(§2) The ability of 6–8 concentrations of test ergot (0.1–500 μg/mL or 0.16–890.20 μM) for typical profiles) to displace 0.25 μmole D and S probes was measured in drug displacement studies. […] To examine the equilibrium binding constant for the ergots, the unbound D and S probes was measured by fluorescence spectroscopy with the use of cation exchange resin to separate the protein bound and unbound probes. All experiments were performed four times using 50 mM Tris HCl with 0.5 mM Na2EDTA, 0.1% Na ascorbate as the medium, to which 10 mg of protein was added giving a final volume of 1 mL. The tubes were allowed to equilibrate for 30 min at 37 °C before filtering with a 0.45 μm cellulose acetate syringe filter (Whatman, NJ, USA) and were washed with two 5 mL ice-cold Tris-buffer. The filters were lyophilized and analysed for free probes. The supernatant aliquots were then passed through small columns of Amberlite CG-50 as previously reported. The 3 mL of formic acid-ethanol (1:3, v/v) eluates containing the analytes were evaporated to dryness in a polyethylene vial and the residues reconstituted with methanol (5 mL) before assay using fluorescence spectrometry. The binding of D and S probes in the presence of the ergots was calculated and plotted to the ergot concentrations for determination of IC50. An apparent Ki value was calculated in the same manner as described for the competitive ligand binding assay with DS-MIP.

[2] = Competitive ligand binding assay on DS-MIP with S as fluorescent probe; settings: 25 mg polymer, S 5.90 μM, 5 mL 4:1 methanol/water, 28 ± 1 °C, mean ± SD, n = 3
Experimental: (§3) In this study, DS-MIP was employed as the sorbent phase for the determination of binding characteristics of the ergot family of alkaloids by competitive ligand binding assay experiment. The ability of the various ergot alkaloids (ergocryptine, ergocornine, ergocristine, ergonovine, agroclavine, pergolide and terguride) to displace bound D and S from the binding sites was measured. Figures 8(a,b) show competitive binding assays with the ergots in the presence of D and S as fluorescent probes. The typical sigmoid calibration curves were obtained for both the D ligand and the S ligand. […] Clearly, the ergot derivatives are able to act as competitors at the DS-MIP binding sites.
(§4) Figure 8. Plots of the ratio of the normalized signal (B/Bî) for MIP to that obtained for NIP against the logarithm of the ergot concentrations for the competitive ligand binding assay using DS-MIP as adsorbent phase and (a) D and (b) S as a fluorescent probe. The values shown are mean ± SD of three replicate specimens.
(§5) Seven ergoline compounds (ergocryptine, ergocristine, ergocornine, ergonovine, agroclavine, pergolide and terguride) were assessed for their ability to displace D or S bound to DS-MIP. DS-MIP or NIP particles (25 mg) were mixed with 6.25 μg of either D (or S) and varying amounts of ergot (final concentration: 0.02 - 500 μg/mL or 0.03 - 890.20 μM) in the suspension solvent (4:1, v/v methanol/water) up to a final volume of 5 ml. The mixture was incubated for 8 h at room temperature, maintaining constant stirring. The changes in fluorescence intensity of D probe in solution were monitored at 320 nm following excitation at 279 nm; for the S probe in solution, monitoring was at 335 nm after excitation at 300 nm. The experimental signals were normalized as: B/Bî, where B is the fluorescence intensity measured in the presence of increasing ergot concentrations and Bî is the signal in the absence of the ergot compound. The ratio of the normalized signal for MIP to that obtained for NIP was plotted as a function of the logarithm of the competitor concentration. Statistical analysis of concentration-response curves was performed by using the computer program GraphPad software, which calculates the lower and upper plateaus, the slope, and the IC50, concentration of an inhibitor producing 50% inhibition. An apparent inhibition constant (Ki) value was calculated using eq (3): (3) Ki=IC50/(1+[L]/Kd) where Ki = apparent inhibitor constant, [L] = free concentration of dopamine or serotonin, and Kd = apparent dissociation constant of a given MIP for D (or S). All experiments were performed in triplicate.

[3] = Time course of binding of ergot compounds to DS-MIP (HPLC-ECD assay); settings: 4:1 (v/v) methanol/water, 28 ± 1 °C
Experimental: The specificity of binding of a group of ergoline derivatives (ergocryptine, ergocornine, ergocristine, ergonovine, agroclavine, pergolide and terguride) to DS-MIP was assessed in 4:1 (v/v) methanol/water at room temperature (28 ± 1 °C). The binding of all the ergots to DS-MIP reached a constant value within 3 h, with ~50% of the DS-MIP-analyte complex being formed by 1 h (Figure 7). […] Based on the specific binding of the ergots to DS-MIP, the tested ergots are readily distinguished into three groups, based on their chemical structures. All of the ergot derivatives tested had typical four fused rings, indolyl amine, piperidinyl amine, and N-methyl and heteroatom-containing alkylpiperidinyl substituents (except pergolide with the N-propyl substituent). The differential binding of the ergot derivatives is probably a consequence of the interaction of the piperidinyl and indolyl amines with acidic and amide functions within the polymer. The orientation of functional entities within the D and S imprinted cavities was not optimal to complement the ergot derivatives, but they existed in sufficient numbers to produce the observed binding effect.
Figure 7. Time course for the binding of ergot compounds to DS-MIP at room temperature (28 ± 1 °C). Binding studies were conducted in 4:1 (v/v) methanol/water using 12.5 mg of polymer and 12.5 μg of each ergot in a final volume of 5 mL (4.1–10.5 μM). At equilibrium, analytes were quantitated in the filtrate by chromatographic assays as described in the Experimental Section. The values shown are mean ± SD of three replicate specimens.
The binding reactivities of ergocryptine, ergocristine, ergocornine, ergonovine, agroclavine, pergolide and terguride, in an incubation medium were evaluated using a chromatographic assay. Briefly, DS-MIP particulates (2.5 mg/mL) were incubated between 0 and 13 h in 10-mL vials at room temperature by agitation with each ergot compound (2.5 μg/mL, 4.1–10.5 μM) in methanol/water (5 mL, 4:1, v/v). At pre-determined time intervals, the filtrate was analysed for the amount of unbound substance by HPLC (see below). The percentage of ergot bound to the polymer was plotted as a function of the incubation time. Each experiment was repeated three times.
A reversed phase HPLC-ECD detection method was used for assay of the ergots. A mobile phase comprising of a buffer (pH 7.4) and methanol (34:66, % v/v) was used for elution. The buffer composition was as follows: 15 mM KH2PO4, 3.75 mM sodium heptanesulfonate and 7.5 mM KCl aqueous solution adjusted to pH 7.4 by phosphoric acid. The analytical column was a Luna 5μ C18, 25 cm × 0.46 cm (Phenomenex, CA, USA). A flow-rate of 1.0 mL/min was used. The electrochemical detector was set at 0.8 V potential. Correlation coefficients for calibration curves for the ergots in the range 2–25 μg/mL ([…]) were greater than 0.999. The sensitivity of detection was about 1.0 μg/mL (1.64–4.20 μM) and the reproducibility of the peak areas of analytes was more than 95%.

[4] = Competitive ligand binding assay on DS-MIP with D as fluorescent probe; settings: 25 mg polymer, D 6.60 μM, 5 mL 4:1 methanol/water, 28 ± 1 °C, mean ± SD, n = 3
Experimental: as §3, §4, §5

[5] = target: serotonin receptors derived from rat hypothalamus; assay: Displacement of S probe from natural receptor; assay type: binding, male-Wistar rat; settings: 10 mg protein, 0.25 μmole S in 1 mL (250 μM), 37 °C, mean ± SD, n = 4; read-out: Ki, S ligand, Rat hypothalamus
Experimental: as §1, §2

[6] = tested on: serotonin receptors derived from rat hypothalamus; assay: Saturation binding of S ligand to rat hypothalamus receptor (Scatchard); design: species or system male-Wistar rat; settings: 50 mM Tris HCl, 37 °C, mean ± SD
Experimental: as §1

[7] = 1H-NMR titration of template/functional monomer complexation; assay type: binding; settings: d6-DMSO, 25 °C
Description: A mixture of methanol and water (4:1, v/v) was chosen as the porogen solvent for the D and S templates, as the hydrochloride salts were soluble only in polar solvents. The strength and positioning of the monomer-template interactions are of importance in developing materials with good molecular recognition properties. For the current work, the functional monomers and cross-linker had been constructed into the MIP structure with a view toward obtaining an efficient recognition system in a polar medium. MAA and ACM were generally used as functional monomers for the imprinting process. Both D and S have a phenolic hydroxyl and the nitrogen atom(s) of the amine group(s) acts as a hydrogen donor-acceptor moiety for binding functional monomers with a corresponding hydrogen bonding pattern. […] However, the huge excess of water and methanol that would be form H-bonds in competition with template and monomer, would reduce binding energy between template and monomer. […] The MBAA cross-linker also forms hydrogen bonds with the carboxylic acid and amino groups of the templates. Figure 2 illustrates the dual dopamine/serotonin molecular recognition site generation in this work.
The change in chemical shifts of proton resonances as a function of D (or S) concentrations was studied in DMSO-d6.

[8] = tested on: dopamine receptors derived from rat hypothalamus; settings: D ligand, 50 mM Tris HCl, 37 °C, mean ± SD, n = 3
Experimental: as §1

Row | SMILES | Ki [1] | Ki [2] | binding to DS-MIP, fold lower than agroclavine [3] | Ki [4] | Ki [5] | other results
1 | CCCN1C[C@H](CSC)C[C@@H]2c3cccc4[nH]cc(c34)C[C@H]21 [Pergolide, pergolide mesylate] | 0.7 ± 0.1 nM | 12.78 ± 0.09 µM | ~ 1.25 fold | 0.2 ± 0.01 µM | 0.006 ± 0.0002 µM | –
2 | NCCc1c[nH]c2ccc(O)cc12 [S, serotonin hydrochloride] | – | – | – | – | – | receptor binding (Bmax) ([6]; n = 3): 1.11 ± 0.01 pmol/mg protein; Kd ([6]; n = 3, read-out: dissociation constant (Kd)): 0.00011 ± 1e-05 µM; Kd ([7]; S template, 1:1 complex, read-out: app. Kdiss with MAA, template's hydroxyl group): 680 ± 100 µM; Kd ([7]; S template, 1:1 complex, read-out: app. Kdiss with MAA, template's indolyl amino group): 920 ± 100 µM; Kd ([7]; S template, read-out: app. Kdiss with ACM, template's hydroxyl group): 190 ± 100 µM; Kd ([7]; S template, read-out: app. Kdiss with ACM, template's indolyl amino group): 430 ± 100 µM
3 | C[C@@H](CO)NC(=O)[C@@H]1C=C2c3cccc4[nH]cc(c34)C[C@H]2N(C)C1 [Ergonovine, ergonovine maleate] | 2.5 ± 0.1 nM | 14.7 ± 0.29 µM | ~ 1.25 fold | 69.57 ± 0.51 µM | 0.0012 ± 0.0001 µM | –
4 | NCCc1ccc(O)c(O)c1 [D, Dopamine hydrochloride] | – | – | – | – | – | Kd ([7]; 1:1 complex of D with single monomer, read-out: apparent dissociation constant (app. Kdiss) of complex with ACM): 1980 ± 100 µM; Kd ([7]; 1:1 complex of D with single monomer, read-out: apparent dissociation constant (app. Kdiss) of complex with MAA): 2120 ± 200 µM; receptor binding (Bmax) [8]: 1.50 ± 0.09 pmol/mg protein; Kd ([8]; read-out: dissociation constant (Kd)): 0.00053 ± 0.00015 µM
5 | CC(C)[C@@]1(NC(=O)[C@@H]2C=C3c4cccc5[nH]cc(c45)C[C@H]3N(C)C2)O[C@@]2(O)[C@@H]3CCCN3C(=O)[C@H](Cc3ccccc3)N2C1=O [Ergocristine, ergocristine] | 7.6 ± 0.1 nM | 19.3 ± 0.6 µM | about 2 fold | 141 ± 1.47 µM | 0.0068 ± 0.0002 µM | –
6 | CC(C)[C@H]1C(=O)N2CCC[C@H]2[C@]2(O)O[C@](NC(=O)[C@@H]3C=C4c5cccc6[nH]cc(c56)C[C@H]4N(C)C3)(C(C)C)C(=O)N12 [Ergocornine, ergocornine] | 10.4 ± 0.2 nM | 27.2 ± 0.78 µM | about 2 fold | 217 ± 2.59 µM | 0.02 ± 0.0001 µM | –
7 | CC(C)C[C@H]1C(=O)N2CCC[C@H]2[C@]2(O)O[C@](NC(=O)[C@@H]3C=C4c5cccc6[nH]cc(c56)C[C@H]4N(C)C3)(C(C)C)C(=O)N12 [Ergocryptine, ergocryptine] | 2.8 ± 0.2 nM | 24.9 ± 0.69 µM | about 2 fold | 124.9 ± 1.22 µM | 0.01 ± 0.0004 µM | –
8 | CCN(CC)C(=O)N[C@H]1C[C@@H]2c3cccc4[nH]cc(c34)C[C@H]2N(C)C1 [Terguride, terguride] | 0.03 ± 0.005 nM | 7.79 ± 0.17 µM | ~ 1.25 fold | 0.14 ± 0.01 µM | 0.0013 ± 0.0001 µM | –
9 | CC1=C[C@@H]2c3cccc4[nH]cc(c34)C[C@H]2N(C)C1 [Agroclavine, agroclavine] | 1.5 ± 0.2 nM | 5.31 ± 0.22 µM | – | 0.4 ± 0.01 µM | 0.0012 ± 0.0001 µM | binding with DS-MIP ([3]; DS-MIP 2.5 mg/mL, ergot 2.5 μg/mL): 70%

Reference: PMC2635646, “Recognition Properties and Competitive Assays of a Dual Dopamine/Serotonin Selective Molecularly Imprinted Polymer” (International Journal of Molecular Sciences, 2008)
